The results in this text go back to patent US9758485B2, “Compounds for controlling arthropods” (priority 2013, dated 2017).

Data set [1] can be described thus: logP determination by HPLC on a reversed-phase column (C18), EEC Directive 79/831 Annex V.A8. It is filed as physicochemical. The note with it: for logP: HPLC, reversed-phase C18, acetonitrile/water with formic acid, 55° C.; for logP^a): HPLC-MS method a), Table I-T3; for log P: HPLC-MS, reversed-phase column (C18).
Data set [2] concerns Lucilia cuprina. The data set is described as follows: Lucilia cuprina test. The class given is in vivo. The note with it: application rate 100 ppm; L1 larvae in minced horsemeat; kill after 2 days. The protocol: (§1) Solvent: dimethyl sulphoxide
(§2) To produce an appropriate active ingredient formulation, 10 mg of active ingredient are mixed with 0.5 ml of dimethyl sulphoxide, and the concentrate is diluted with water to the desired concentration.
About 20 L1 larvae of the Australian sheep blowfly (Lucilia cuprina) are transferred into a test vessel containing minced horsemeat and the active ingredient preparation of the desired concentration.
After 2 days, the kill in % is determined. 100% means that all the larvae have been killed; 0% means that none of the larvae have been killed.

The subject of data set [3] is Ctenocephalides felis. The data set is described as follows: Ctenocephalides felis - in vitro contact tests with adult cat fleas. The class given is in vivo. The note with it: application rate 5 μg/cm^2 (=500 g/ha), after 48 h (dead or moribund). The protocol:
Ctenocephalides felis—In Vitro Contact Tests with Adult Cat Fleas
For the coating of the test tubes, 9 mg of active ingredient are first dissolved in 1 ml of acetone p.a. and then diluted to the desired concentration with acetone p.a. 250 μl of the solution are distributed homogeneously on the inner walls and base of a 25 ml test tube by turning and rocking on an orbital shaker (rocking rotation at 30 rpm for 2 h). With 900 ppm active ingredient solution and internal surface area 44.7 cm^2, given homogeneous distribution, an area-based dose of 5 μg/cm^2 is achieved.
After the solvent has evaporated off, the tubes are populated with 5-10 adult cat fleas (Ctenocephalides felis), sealed with a perforated plastic lid and incubated in a horizontal position at room temperature and ambient humidity. After 48 h, efficacy is determined. To this end, the test tubes are stood upright and the fleas are knocked to the base of the tube. Fleas which remain motionless at the base or move in an uncoordinated manner are considered to be dead or moribund.
100% efficacy means that all the fleas were dead or moribund. 0% efficacy means that no fleas were harmed.

Data set [4] has as its system Ctenocephalides felis. The data set is described as follows: Ctenocephalides felis - oral test. The note with it: application rate 100 ppm in citrated cattle blood; adult fleas; kill after 2 days. The class given is in vivo. As for the experimental part: Ctenocephalides felis—Oral Test
as §1
For the purpose of producing an appropriate active ingredient formulation, 10 mg of active ingredient are mixed with 0.5 ml of dimethyl sulphoxide. Dilution with citrated cattle blood gives the desired concentration.
About 20 unfed adult cat fleas (Ctenocephalides felis) are placed into a chamber which is closed at the top and bottom with gauze. A metal cylinder whose bottom end is closed with parafilm is placed onto the chamber. The cylinder contains the blood/active ingredient preparation, which can be imbibed by the fleas through the parafilm membrane.
After 2 days, the kill in % is determined. 100% means that all of the fleas have been killed; 0% means that none of the fleas have been killed.

Data set [5] relates to Boophilus microplus. The experiment in a line: Boophilus microplus - injection test. It is filed as in vivo. The note with it: application rate 20 μg/animal; injected into engorged adult female ticks; laying of fertile eggs, after 7 days. The protocol:
Boophilus microplus—Injection Test
as §1
To produce an appropriate active ingredient formulation, 10 mg of active ingredient are mixed with 0.5 ml of solvent and the concentrate is diluted with solvent to the desired concentration.
1 μl of the active ingredient solution is injected into the abdomen of 5 engorged adult female cattle ticks (Boophilus microplus). The animals are transferred into dishes and kept in a climate-controlled room.
Efficacy is assessed after 7 days by laying of fertile eggs. Eggs which are not visibly fertile are stored in a climate-controlled cabinet until the larvae hatch after about 42 days. An efficacy of 100% means that none of the ticks has laid any fertile eggs; 0% means that all the eggs are fertile.

In data set [6] the test system is Musca domestica. The data set is described as follows: Musca domestica test. The class given is in vivo. The note with it: application rate 100 ppm; adult houseflies; kill after 2 days. The protocol: as §1, §2
Vessels containing a sponge treated with sugar solution and the active ingredient formulation of the desired concentration are populated with 10 adult houseflies (Musca domestica).
After 2 days, the kill in % is determined. 100% means that all of the flies have been killed; 0% means that none of the flies have been killed.

Broadly, the logP is the decadic logarithm of the partition coefficient of the neutral form, usually between octanol and water. A high value points to higher lipophilicity. Turning to `Cc1cc(C(F)(C(F)(F)F)C(F)(F)F)cc(C)c1-n1ccc(-c2ccc(Cl)c(C(=O)NC3CC3)c2)c1` [I-T46-2], in data set [1], the logP came out at 5.0. The efficacy in data set [2], in data set [3], in data set [4] and in data set [5] was 100% throughout.
As to `Cc1cc(C(F)(C(F)(F)F)C(F)(F)F)cc(C(F)(F)F)c1-n1cc(-c2ccc(Cl)c(C(=O)NCC(F)(F)F)c2)cn1` [I-T3-84], in data set [1], the “logP^a)” value is 4.7. The efficacy in data set [2], in data set [3], in data set [4], in data set [6] and in data set [5] was 100% each time.
A word on the log P: it is the decadic logarithm of the partition coefficient of the neutral form, usually between octanol and water. Turning to `Cc1ncc(-c2cnn(-c3c(Cl)cc(C(F)(F)F)cc3Cl)c2)cc1C(=O)NC1(C#N)CC1` [I-T3-129], the “log P” value in data set [1] stood at 2.6. In addition, the efficacy in data set [3] is listed as 100%; in data set [4], 100%; in data set [6], 80%; in data set [5], 100%.
Take `Cc1cc(C(F)(C(F)(F)F)C(F)(F)F)cc(C)c1-n1cc(-c2cccc(C(=O)NC3CC3)c2F)cn1` [I-T3-9]: the “logP^a)” value in data set [1] is listed as 4.3. Further, the efficacy in data set [2], in data set [3], in data set [4] and in data set [5] was 100% throughout.
For the compound `CNc1ncc(-c2cnn(-c3c(Cl)cc(C(F)(C(F)(F)F)C(F)(F)F)cc3Cl)c2)cc1C(=O)NC1CC1` [I-T3-136], in data set [1], the “log P” value was determined as 3.5. Further, the efficacy in data set [2], in data set [3], in data set [4], in data set [6] and in data set [5] was 100% each time.
Turning to `CCNC(=O)c1cc(-c2cnn(-c3c(Cl)cc(C(F)(F)F)cc3Cl)c2)cnc1C` [I-T3-147], in data set [1], the “log P” value is on record as 4.0. The compound further had an efficacy in data set [3] of 100%.
In data set [1], `Cc1cc(C(F)(C(F)(F)F)C(F)(F)F)cc(C)c1-c1cc(-c2ccc(Cl)c(C(=O)NCC(F)(F)F)c2)on1` [I-T22-3] gave a logP of 5. In addition, the efficacy in data set [2], in data set [3], in data set [4], in data set [6] and in data set [5] was 100% each time.
Consider `N#CC1(NC(=O)c2cc(-c3cc(-c4c(Cl)cc(C(F)(C(F)(F)F)C(F)(F)F)cc4Cl)on3)ccc2Cl)CC1` [I-T23-2], for which the logP in data set [1] is 4.8. The efficacy in data set [2], in data set [3], in data set [4], in data set [6] and in data set [5] was 100% throughout.
In the case of `Cc1cc(C(F)(C(F)(F)F)C(F)(F)F)cc(C(F)(F)F)c1-n1cc(-c2ccc(Cl)c(C(=O)NC3CSC3)c2)cn1` [I-T3-85], in data set [1], the “logP^a)” value amounted to 4.7. The efficacy in data set [2], in data set [3], in data set [4], in data set [6] and in data set [5] was 100% in each case.
On to `COCCNc1ncc(-c2cnn(-c3c(Cl)cc(C(F)(C(F)(F)F)C(F)(F)F)cc3Cl)c2)cc1C(=O)NC1CC1` [I-T3-138], for which the “log P” value in data set [1] was 4.1. The same compound showed an efficacy in data set [3] of 100%.
Take `Cc1cc(C(F)(C(F)(F)F)C(F)(F)F)cc(C)c1-n1cc(-c2ccc(Cl)c(C(=O)NCC(F)(F)F)c2)cn1` [I-T3-2]: the “logP^a)” value in data set [1] came to 4.7. The efficacy in data set [2], in data set [4], in data set [6] and in data set [5] was 100% each time.
Regarding `CCc1cc(C(F)(C(F)(F)F)C(F)(F)F)cc(C)c1-n1cc(-c2ccc(Cl)c(C(=O)NC3(C#N)CC3)c2F)cn1` [I-T3-66], the “logP^a)” value in data set [1] came out at 4.6. Further, the efficacy in data set [2] is 100%; in data set [4] it was 100%; in data set [6], 80%; in data set [5], 100%.
With `N#CC1(NC(=O)c2cc(-c3cnn(-c4ncc(C(F)(C(F)(F)F)C(F)(F)F)cc4Cl)c3)ccc2Cl)CC1` [I-T3-151], the “log P” value in data set [1] is reported as 4.0. Moreover, the efficacy in data set [2], in data set [4], in data set [6] and in data set [5] was 100% throughout.
With `Cc1cc(C(F)(C(F)(F)F)C(F)(F)F)cc(C)c1-n1cc(-c2cc(C(=O)NC3(C#N)CC3)c(Cl)cc2F)cn1` [I-T3-17], in data set [1], the “logP^a)” value was 4.4. Further, the efficacy is given as 100% in data set [2], 100% in data set [3], 95% in data set [4] and 100% in data set [5].
Regarding `N#CC1(NC(=O)c2cc(-c3cnn(-c4c(Cl)cc(OC(F)(F)F)cc4Cl)c3)ccc2Cl)CC1` [I-T3-87], the “logP^a)” value in data set [1] is reported as 3.6. In addition, the efficacy in data set [2], in data set [3], in data set [4], in data set [6] and in data set [5] was 100% each time.
Consider `Cc1ncc(-c2cnn(-c3c(Cl)cc(C(F)(F)F)cc3Cl)c2)cc1C(=O)N(C)C1CC1` [I-T3-128], for which the “log P” value in data set [1] is on record as 2.8. The efficacy in data set [3], in data set [4] and in data set [5] was 100% in each case.
Turning to `Cc1ncc(-c2cnn(-c3c(Cl)cc(C(F)(F)F)cc3Cl)c2)cc1C(=O)N(C)C1(C#N)CC1` [I-T3-132], the “log P” value in data set [1] is 2.9. Moreover, the efficacy in data set [3], in data set [4] and in data set [5] was 100% throughout.
On to `O=C(NC1CC1)c1cc(-c2cnn(-c3ncc(C(F)(F)F)cc3C(F)(F)F)c2)ccc1Cl` [I-T3-150], for which the “log P” value in data set [1] was found to be 3.6. Moreover, the efficacy in data set [2], in data set [4], in data set [6] and in data set [5] was 100% throughout.
As to `CCc1cc(C(F)(C(F)(F)F)C(F)(F)F)ccc1-n1cc(-c2cncc(C(=O)NC3CC3)c2)cn1` [I-T3-79], the “logP^a)” value in data set [1] came to 3.3. Besides, the efficacy in data set [2] amounted to 80%; in data set [4], 95%; in data set [6], 80%; in data set [5] it was 100%.
Take `Cc1ncc(-c2cnn(-c3c(Cl)cc(C(F)(F)F)cc3Cl)c2)cc1C(=O)NC1CC1` [I-T3-127]: in data set [1], the “log P” value turned out to be 2.5. Also, the efficacy in data set [2] is 90%; in data set [3], 100%; in data set [4], 100%; in data set [5], 100%.
In the case of `N#CC1(NC(=O)c2cc(-c3cnn(-c4c(F)cc(C(F)(C(F)(F)F)C(F)(F)F)cc4F)c3)ccc2Cl)CC1` [I-T3-62], in data set [1], the “logP^a)” value is recorded as 3.9. Further, the efficacy in data set [2], in data set [4], in data set [6] and in data set [5] was 100% in each case.
Regarding `CCc1cc(C(F)(C(F)(F)F)C(F)(F)F)cc(C)c1-n1cc(-c2cncc(C(=O)NC3CC3)c2)cn1` [I-T3-77], the “logP^a)” value in data set [1] came out at 3.4. Further, the efficacy in data set [2], in data set [4], in data set [6] and in data set [5] was 100% each time.
In data set [3], `N#CC1(CNC(=O)c2cc(-c3cnn(-c4c(Cl)cc(C(F)(C(F)(F)F)C(F)(F)F)cc4C(F)(F)F)c3)ccc2Cl)CC1` [I-T3-199] yielded an efficacy of 100%.
